For two compounds, germination activity and tiller number results are on record in US8980795B2, “Strigolactone analogues and their use” (King Abdullah University of Science and Technology, priority 2011, dated 2015).

One assay deals with Striga hermonthica seeds. Kind of assay: Striga seed germination assay. It counts as in vivo. The note with it: concentration of 3.3 μM; positive control, same conditions. The method, then:
Striga Seed Germination Assay Pre-conditioning of Striga hermonthica seeds was carried out in a first step to see the effect of germination stimulants. For this purpose clean Striga seeds were surface sterilized with 2% sodium hypochlorite in sterile water containing 0.4% of Tween-20. About 50 to 100 sterilized seeds were spread on 9-mm diameter glass fibre filter paper discs. Twelve of these discs were placed in a 9-cm diameter Petri-dish on sterilized Whatman filter paper, moistened with 3.0 ml sterilized water. After sealing with parafilm, the Petri-dishes were placed in darkness in an incubator at 30° C. After 10 days of incubation, the discs with preconditioned seeds were supposed to be ready to test germination stimulant. Surplus moisture was evaporated from each petri dish in laminar flow cabinet. The dry discs were then placed in another Petri-dish (six per Petri-dish) containing a filter paper ring (outer diameter 9 cm, inner diameter 8 cm) moistened with 0.9 ml water. Various concentration of the compound of formula IA were applied (50 μl per disc) to triplicate discs. GR24, a synthetic strigolactone analogue, was applied as positive control. Subsequently, the Striga seeds were incubated in darkness at 30° C. for another 48 hours and germination (seeds with radicle protruding through the seed coat) scored with the help of a binocular microscope.

The next assay concerns ccd8 rice mutant (d10). The assay can be described thus: Rice tillering assay. It counts as in vivo, rice (Oryza sativa L.). The note with it: 2 μM through nutrient solution, supplied daily, tillers counted up to 12 days. The method, then: Rice seeds were surface sterilized with 2% sodium hypochlorite. The seeds were allowed to germinate in a Petri dish on a moistened filter paper. In the meanwhile bottom of 1.5 ml eppendorf tube was cut and filled with 0.6% phyto-agar. One pre-germinated seed was planted in the center of the tube on solid phytoagar and this tube was fitted in the cap of 10 ml plastic tube. The 10 ml tube was filled with modified Hoagland nutrient solution. After two weeks of planting, the compound of formula IA (2 μM) was added through nutrient solution to half of the tubes of each rice cultivars/mutants and the remaining half were kept as control. The nutrient solution with or without the compound of formula IA was supplied daily. Number of tillers per plant was counted at 24 hours interval up to 12 days of carlactone application.

SMILES strings stand for the structures.

In the assay with Striga hermonthica seeds, `CC1CC(O/C=C2/C(=O)OC3c4ccccc4CC23)OC1=O` (centres unmarked) [GR24] showed a germination activity of roughly 50%.
In the case of `CC1=CC(O/C=C(C)\C=C\C2=C(C)CCCC2(C)C)OC1=O` (centres unmarked) [Compound IA], in the assay on ccd8 rice mutant (d10), the tiller number result was “reduction of tiller number”.
